Consider one substance from patent publication US20070207123A1, “Amelioration of effects of cigarette smoke” (priority 2002, published 2007).

Assay [1] concerns pulmonary alveolar macrophages (PAM). In words: TNF-alpha secretion by pulmonary alveolar macrophages (ELISA). The conditions noted are these: overnight incubation, baseline 8.3 pg/ml per 1 × 10^6 cells, N 5. The assay is classed as cell-based, rat (Fischer 344). The procedure:
Rat pulmonary alveolar macrophages (PAM) were isolated from pathogen-free male Fischer 344 rats (Harlan, Indianapolis, Ind.). The rats were anesthetized intramuscularly with ketamine HCL (80 mg/kg; Parke-Davis, Morris Plains, N.J.), xylazine (10 mg/kg; Mobay Corp., Shawnee, Kans.) and acepromazine maleate (3 mg/kg; Fermenta Animal Health Co., Kansas City, Mo.). A tracheostomy was performed, with the insertion of a Teflon #18 gauge catheter (Critikon, Tampa Bay, Fla.) as an endotracheal tube. The rats were killed by exsanguination of the abdominal aorta. The lungs were removed and lavaged with 3 ml aliquots of normal sterile saline warmed to 37 C for a total of 6 washes. The lavaged total cell numbers and PAM differentials were determined from a 0.2 ml sample by hemocytometer counting and cytocentrifuge preparation stained with Diff-Quik (Dade Diagnostics, Aguada, Puerto Rico), respectively. The remaining lavaged fluid was pooled and centrifuged at 400×g for 10 minutes to obtain a cell pellet. […] Cells were then counted using a standard hemocytometer and placed in 12 well plates at a density of 10^4 cells/ml. […]
TNF-alpha secretion by pulmonary alveolar macrophages (PAM) was measured by ELISA (R&D Systems, Minneapolis, Minn.) according to the manufacturer's instructions (25).

The subject of assay [2] is mice exposed to side-stream cigarette smoke (SSCS). Put plainly: Dynamic lung compliance after side-stream cigarette smoke (SSCS) exposure. The assay is classed as in vivo, mouse (C57B1/6). As for the experimental part: C57B1/6 (B6, Jackson Labs) mice were utilized. Mice were used at an age of 8-12 weeks, 25-35 grams in weight. Female animals only were utilized. All animals were housed in the animal facility of the Dept. of Animal Resources at The University of Arizona Health Sciences Center. Animals were used in AAALAC-approved protocols.
Aerosolized exposures were performed using a DeVilbiss Ultra-Neb nebulizer (Model 099HD, Somerset, Pa.). Animals were exposed in a nose-only presentation while held in individual subject loading tubes similarly to that previously described (12). The tubes were nose cone-fitted to receiving adapters that originated from the common exposure chamber (volume 0.0027 m3, IN-TOX, Albuquerque, N. Mex.). […] Exposure concentration was determined by a seven-stage cascade impactor (IN-TOX) from changes in plate weights and measured immediately after each exposure. […]
Mice were anesthetized with ketamine hydrochloride (80 mg/kg), xylazine (10 mg/kg) and acepromazine maleate (3 mg/kg). […] Airflow was measured with a pneumotachograph (Fleisch #0000, Instrumentation Associates, New York, N.Y.) that was coupled to a differential pressure transducer (Validyne, Northridge, Calif.). […] These lung function parameters were measured with a modified PEDS-LAB (Medical Associated Services, Hatfield, Pa.) pulmonary function system. […]

Assay [3] has as its system mononuclear cells of SSCS-exposed mice. In words: Micronuclei formation in bone marrow and peripheral blood cells after SSCS exposure. The format is in vivo, mouse (C57B1/6). As for the experimental part: Determination of micronuclei formation was made as described by Fenech (3). Briefly, animals were exposed to cigarette smoke ±SP treatment. Viable mononuclear cells were isolated from peripheral blood and bone marrow, stimulated with the mitogen PHA for 44 h, and treated with cytochalasin B for 28 h. Cytocentrifuge preparations were made, cells fixed and then analyzed at 1000× for micronuclei formation. At least 1000 cells were analyzed for each preparation.
Exposure to cigarette smoke results in genetic changes that can cause malignant cellular transformation (21, 22). Animals were exposed to SSCS as described above and sacrificed after 7 days. Viable mononuclear cells were isolated from peripheral blood and bone marrow, stimulated with the mitogen PHA for 44 h, and treated with cytochalasin B for 28 h. Cytocentrifuge preparations were made, cells fixed and then analyzed at 1000× for micronuclei formation. At least 1000 cells were analyzed from each preparation. […] Micronuclei formation in combination with damage of lung epithelia can result on pathological conditions such as emphysema and cancer (21).

Another assay deals with B16 tumor cells. Put plainly: Experimental lung metastasis model, aerosolized SP. The assay is classed as in vivo, mouse (B6). The conditions noted are these: for #Tumors/2 Lungs: mean +/− SD; for % Change in #Tumors/2 Lungs: vs B16 alone. As for the experimental part: (§1) Mice were treated with the SP analog [Sar^9, Met (O2)^11-substance P] for 15 minutes at the indicated doses following the cigarette smoke exposures as previously described (7, 10). Other than the genetically engineered SP experiments, all SP treatments were by the aerosol route using the previously described exposure chambers.
B16 tumor cells (H-2^b) were obtained from the American Type Cell Collection (ATCC) and grown in DMEM media (Sigma, St. Louis, Mo.) supplemented with 10% fetal bovine serum (Hyclone, Colo.), antibiotics, nonessential amino acids and glutamine as. Cells in log growth were used for all experiments. An experimental lung metastasis model was utilized in which B16 tumor cells (0.5×10^6 cells in 100 ul saline) were injected intravenously into syngeneic B6 mice. At 7-10 days post-injection the animals were sacrificed and the visually prominent (black) tumors on the surface of both lungs were enumerated.
The Student's t-test was utilized to analyze the data presented. A p value of 0.05 (or lower) was used as a minimally significant difference.

Assay [4] concerns airway epithelium and basement membranes of SSCS-exposed mice. In words: Electron microscopy of lung airway after SSCS exposure. The format is in vivo, mouse (C57B1/6). The procedure: Mice were exposed to side-stream cigarette smoke as previously described (23). […] The cigarette was lit, placed upright in a ring clamp and the smoke was directed into a funnel for distribution through the chamber (at a concentration designed to simulate human exposure in a smokey bar).
The Substance P (SP) agonist, [Sar^9, Met (O2)^11-substance P] was obtained from Sigma Chemicals (St. Louis, Mo.) and used after reconstitution in sterile saline.
as §1
The lungs were prepared for morphometric study by injection of half-strength Kamovsky's Fluid into a major artery at a constant pressure of 20 cm H2O for 1 h at room temperature. The fixed tissue was then tied off at the artery with #4 suture. The Pathology Core Laboratories of the Southwestern Environmental Health Science Center evaluated the fixed tissue for pathological changes. The fixed tissues were sliced, dehydrated and post-fixed in osmium tetroxide, dehydrated and embedded in Epon-Araldite for high-resolution electron microscopy. Thin sections were cut from the embedded tissue with a diamond knife, mounted on 200 um copper mesh grids, and doubly stained with lead citrate and uranyl acetate. The tissue was viewed and photographed using a Phillips CM12 electron microscope (maximum magnification of 19,000×) (21).
Animals were exposed to SSCS for 45 min/day for 7 days from 1R4 standard research cigarettes (cigarette is lit and then placed upright in a ring clamp and the smoke is directed into a funnel for distribution through our exposure chamber) at a concentration designed to simulate a “smokey bar” scenario for human exposure to sidestream cigarette smoke. The sidestream cigarette smoke is considered highly toxic, even compared to the mainstream cigarette smoke that a human smoker inhales, due to the low combustion temperature of the smoldering cigarette. Subsequent to the exposures, some mice were treated with 1 uM-aerosolized SP for 15 minutes. At the end of one week the animals were sacrificed and lungs removed for electron microscopic analysis. […] The structure of the airway is characterized by airway epithelial cells anchored to a basement membrane. Another basement membrane serves as the anchor for the airway endothelial cells. The SSCS electron micrograph is characterized by swelling in both basement membrane areas of the airway structure and loss of cilia on the surface of the airway epithelium. […]

The mark [5] stands for this setting: SSCS + SP, 7 days, mean +/− SD, N 6.
Where [6] appears, read: SSCS 45 min/day then 15 min aerosol dose, FIG. 2.

Marks after values point to notes of the source that are not given here.

On to [Sar^9, Met (O2)^11-substance P] [SP], for which the results for the “Fold-Increase TNFa” value in assay [1] (8 nM SP) and in assay [1] (1 uM SP) were 3.2X and 5.4X, respectively. For the same substance, in assay [2] (SP immediately after the smoke exposures), the “alterations in lung compliance due to SSCS” value is “prevented/reversed”. Further, in assay [2] (SSCS 45 min/day for 1 week, then 1 uM aerosolized SP for 15 min, mean +/− SEM, N 15), the “Dynamic Lung Compliance” value was 2.2 (0.02) ml · cm H2O^−1 · Kg^−1. The “levels of micronuclei formation versus control animals” value in assay [3] (SP immediately after SSCS exposure, blood and bone marrow cells) is “comparable to control animals”. The “Percent Micronuclei, Blood” value in assay [3] (setting [5]) was 0.01 +/− 0.01* Percent. Moreover, in assay [3] (setting [5]), the “Percent Micronuclei, Bone Marrow” value was 0 +/− 0* Percent. Also, the “inhibition of lung tumor formation” value in the assay with B16 tumor cells (Experiments 1 to 3, aerosolized SP at the time of or after tumor induction) was 58-97%. Also, the “#Tumors/2 Lungs” value with B16 tumor cells (Expt. 1: aerosolized SP at the time of tumor induction, N 4) was 39 +/− 4*; with B16 tumor cells (Expt. 2: aerosolized SP at day 7 following tumor induction, N 4), 1 +/− 0.3*; in the assay on B16 tumor cells (Expt. 3: aerosolized SP at day 7 following tumor induction, N 8), 102 +/− 32*. For the same substance, the “% Change in #Tumors/2 Lungs” value in the assay with B16 tumor cells (Expt. 1: aerosolized SP at the time of tumor induction) is −63%; with B16 tumor cells (Expt. 2: aerosolized SP at day 7 following tumor induction), −97%; with B16 tumor cells (Expt. 3: aerosolized SP at day 7 following tumor induction), −58%. In addition, in assay [4] (SSCS 45 min/day 7 days, 1 uM aerosolized SP 15 min), the “deterioration of the lung epithelium / basement membrane (electron microscopy)” value was “attenuated such deterioration of the lung epithelium”. Further, in assay [4] (setting [6]), the “airway basement membranes (electron micrograph)” value is listed as “normal appearance of airway basement membranes”. Also, the “airway cilia (electron micrograph)” value in assay [4] (setting [6]) is “normal cilia”. Besides, the “cell membrane between airway cells (electron micrograph)” value in assay [4] (SSCS 45 min/day then 15 min aerosol dose, FIG. 3) is “identifiable cell membrane between airway cells”.
